In data set [1] the test system is PC-3 (human prostate cancer) cells. Briefly: MTT assay, PC-3 cells. In kind it is cell-based. Conditions: MTT assay, 48 h incubation; read-out: IC50 (mean ± SD), PC-3, MTT. The protocol:
(§1) The cell proliferations of ligand precursors and organotin(IV) compounds were evaluated with the aid of MTT (3-(4,5-dimethylthiazol-2-yl)-2,5-12 diphenyltetrazolium bromide) and CV (crystal violet) assays toward prostate (PC-3), colon (HT-29), breast (MCF-7) and hepatic (HepG2) cancer cell lines, and normal mouse embryonic fibroblast cells (NIH 3T3). The cells were cultivated in T75 flasks containing 10 mL of complete medium and kept at 37 °C and 5% CO2 […]. The nutrient medium was RPMI-1640 (PAA Laboratories) supplemented with 10% foetal bovine serum, L-glutamine, and penicillin/streptomycin (Sigma). Afterward, 5.000 cells of PC-3 and MCF-7 and 1.500 cells of HT-29 and HepG2 were transferred into 96 well-plates and used for MTT and CV assays. For microscopy investigations as well as FACS measurements (except for ROS/RNS measurements), MCF-7 cells were seeded overnight in 6-well plates (150,000 cells/well) in […] of complete medium. […] In all assays, control cells were untreated MCF-7 cells incubated for the same time period as treated cells and treated with appropriate reagents in various assays. BD FACS Aria III was used for flow cytometry experiments and results were analysed using BD FACSDiva software (BD Biosciences, Heidelberg, Germany) and Cyflogic (V 1.2.1, CyFlo Ltd., Turku, Finland). A fluorescence microscope Invitrogen EVOS FL 2 Auto 2 Cell Imaging System was used for visualization of the cells as well as for detection of fluorescence in the cells.
(§2) Ligands HL1‒HL3, organotin(IV) compounds, and cisplatin were investigated in 9 different concentrations (100, 50, 10, 5, 1, 0.5, 0.1, 0.05, 0.01 μM). Using the complete medium, each stock solution of the test compounds (20 mM in DMSO) was diluted to obtain the working solution. The final concentration of DMSO never overstepped 0.5%, which is non-toxic to the cells. Three technical replicates were performed for each concentration. The treated cells were incubated for 48 h at 37 °C under 5% CO2 and the viability of the cells was determined using MTT and CV assays according to the literature procedure. The IC50 values, defined as 50% inhibitory concentration, were calculated with a four-parameter logistic function and presented in a mean. All experiments were performed in triplicate.
(Tetrazolium dyes change colour on reduction, which living cells bring about.)

Data set [2] has as its system MCF-7 (breast cancer) cells. In words: MTT assay, MCF-7 cells. In kind it is cell-based, human. Conditions: for IC50: MTT assay, 48 h incubation, read-out: IC50 (mean ± SD), MCF-7, MTT. The procedure: as §1, §2
Data set [3] concerns HT-29 (human colorectal adenocarcinoma) cells. In words: CV (crystal violet) assay, HT-29 cells. The conditions noted are these: CV assay, 48 h incubation; read-out: IC50 (mean ± SD), HT-29, CV. It is filed as cell-based. The protocol: as §1, §2
Data set [4] relates to MCF-7 (breast cancer) cells. Briefly: CV (crystal violet) assay, MCF-7 cells. It is filed as cell-based, human. Conditions: for IC50: CV assay, 48 h incubation, read-out: IC50 (mean ± SD), MCF-7, CV. The procedure:
as §1, §2

The test system of data set [5] is MCF-7 cells. In words: Tin and platinum uptake by ICP-MS. It is filed as cell-based, human. Conditions: 24 h, at IC50 (CV assay): cisplatin 15.83 µM, Ph3SnL1 0.218 µM. The procedure: The cellular uptake features of metal-based cytotoxic drugs strongly impact the underlying anticancer performance. Intracellular tin and platinum uptake in MCF-7 cells has been investigated with the aid of inductively coupled plasma mass spectrometry (ICP-MS) analysis. The treatment of cells with Ph3SnL1 and cisplatin for 24 h in concentrations corresponding to their IC50 values, as obtained by the CV assay, was performed.
The tin and platinum uptake analysis was performed on MCF-7 cells with the aid of inductively coupled plasma mass spectrometry (ICP-MS). The cells were seeded in T25 flasks and allowed to grow. After 24 h, the exponentially growing cells were treated with 10 mL of Ph3SnL1 and cisplatin in concentrations corresponding to their IC50 values for 24 h, and thereafter trypsinised and collected by centrifugation at 1200 rpm for 8 min. Using 5 mL of ice-cold PBS the cells were washed and the metal uptake concentration in prepared samples was determined according to the previously described procedure. A Thermo Scientific iCAP Qc ICP-MS (Thermo Scientific, Bremen, Germany) instrument using the supplied autotune protocols and operational software Qtegra was employed for metal uptake determination. The measurements were performed on isotopes ^119Sn, ^120Sn, ^195Pt, and ^198Pt and the concentrations of metals were expressed as ppb (µg/L).

Data set [6] has as its system MCF-7 cells. Briefly: Activation of caspases (apostat, flow cytometry). In kind it is cell-based, human. The text has this: The activation of caspase is closely linked to cell apoptosis, the controlled cell death, via the mitochondrial pathway or cell death receptor [23, 24]. […] Due to this, it can be concluded that cell death is accomplished through caspase-independent apoptosis. Moreover, as MCF-7 cell line is caspase-3 deficient, this was an anticipated result. Besides, the accomplishment of apoptosis induced with Ph3SnL1 in MCF-7 cells (confirmed with AO and DAPI assays) was not disturbed as this type of cell death may be activated through other death signals not involving caspase activation.
The cells were resuspended in 1 mL of PBS and analysed with flow cytometry.
(In general: A flow cytometer gives signals particle by particle.)

Data set [7] relates to MCF-7 cells. Briefly: Autophagy analysis (AO, flow cytometry). It is filed as cell-based, human. The conditions noted are these: 48 h, IC50 concentration. The procedure:
Thereafter, the medium was collected into 15 mL Falcon tubes, while the cells were washed with 1 mL of PBS. The cells were detached using […] of trypsin. The deactivation of trypsination was performed with the formerly collected medium, while for the untreated cells, 1 mL of complete medium was added, and the cells were collected by the pipette tip harvesting technique from each well into a new Falcon tube, which then was centrifuged for 3 min at 1000 rpm. The supernatant was discarded, and the cells were washed with 1 mL of PBS, centrifuged for 3 min at 1000 rpm and then the supernatant was discarded. Afterwards, 500 μL of the acridine orange (AO) working solution was used to stain the cells which then were incubated for 30 min at 37 °C under 5% CO2. The deactivation of the staining process was performed by adding 1 mL of PBS, and after centrifugation for 3 min at 1000 rpm, the supernatant was discarded. The cells were resuspended in 1 mL of PBS and analysed by flow cytometry.

Take `O=C(CCc1nc(-c2ccccc2)c(-c2ccccc2)o1)[O][Sn]([c]1ccccc1)([c]1ccccc1)[c]1ccccc1` [Ph3SnL1, (3-(4,5-Diphenyloxazol-2-yl)propanoato)triphenyltin(IV)]: the IC50 (usually the midpoint of a concentration-inhibition curve) in data set [1] stood at 0.181 ± 0.027 µM; in data set [2], 0.132 ± 0.021 µM; in data set [3] it was 0.465 ± 0.046 µM; in data set [4] it was 0.218 ± 0.025 µM. The “fold higher activity compared to cisplatin against MCF-7” value in data set [2] (Table 1 IC50 values, 48 h) is reported as “up to 120 fold”. For the same compound, the “times more powerful antiproliferative activity than cisplatin in MCF-7 cells” value in data set [4] (CV assay IC50 values) is “up to 70 times”. In the data set with MCF-7 cells [5], the “intracellular metal (tin / platinum) uptake” value is “two-fold lower concentration of tin in MCF-7 cells in comparison to platinum”. Moreover, the “mode of cell death” value in the data set on MCF-7 cells [6] is “induces caspase-independent apoptosis”. Moreover, the “caspase activation (apostat)” value in the data set with MCF-7 cells [6] (48 h, IC50 concentration) is on record as “did not induce the activation of caspases”. For the same compound, the “autophagy (AO)” value in the data set on MCF-7 cells [7] is “autophagy process is not triggered”.

Consider `N.N.[Cl][Pt][Cl]` [cisplatin, reference compound], for which the concentration for half-maximal inhibition (IC50) in data set [1] came to 14.3 ± 0.26 µM; in data set [2], 15.2 ± 1.04 µM; in data set [3], 16 ± 0.95 µM; in data set [4] it was 15.8 ± 0.55 µM. The “intracellular metal (tin / platinum) uptake” value in the data set on MCF-7 cells [5] is on record as “approximately twofold higher platinum concentration in MCF-7 cells compared to tin”. Further, the “autophagy (AO)” value in the data set on MCF-7 cells [7] is recorded as “induces an autophagic response”.

The values above are taken from publication PMC8198038, “In Vitro Evaluation of Antiproliferative Properties of Novel Organotin(IV) Carboxylate Compounds with Propanoic Acid Derivatives on a Panel of Human Cancer Cell Lines” (Molecules, 2021).
